Patent publication US20260000697A1, “COMBINATION FORMULATION OF CEDAZURIDINE” (Otsuka Pharmaceutical Co., Ltd., priority 2022, published 2026)
Where “and” joins values, the source holds several entries; their conditions need not be identical. Equal entries are not always repeated. Where two headings read alike, the source gives them in different places.

Tests used:
[1] = for release at buffer stage from enteric capsule: 50 mM phosphate buffer pH 6.8; for release at buffer stage from enteric capsule / release in acid stage from enteric capsule: Capsule 1 and Capsule 2; for release in acid stage from enteric capsule: 0.1 N HCl, 2 hours
clinical = experiment: clinical
Procedure: Blood samples were collected pre-dose, and 0.5, 1, 1.5, 2, 2.5, 3, 3.5, 4, 5, 7, 9 and 24 hours after dosing.

[2] = tested on: fetal hemoglobin levels (Hb F); conditions: orally administered (8 mg/kg), repeatedly phlebotomized baboon (PCV less than 20%); cited from earlier work
[3] = 80 mg oral dose, 3 subjects, one value per subject, post-dose; cited from earlier work
[4] = human, blood, subcutaneous, 60 mg

Compound	release at buffer stage from enteric capsule [1]	release in acid stage from enteric capsule [1]	stability in dissolution medium ([1]; pH 6.8)	effect of co-administration on azacitidine PK (clinical; 60 mg oral delayed release azacitidine with vs without 60 mg cedazuridine)	AUC(0-t) (clinical; [4])	Cmax (clinical; [4])	Tmax (clinical; [4])	elevation in fetal hemoglobin levels (Hb F) [2]	Tmax [3]
O=C1N[C@H](O)CCN1[C@@H]1O[C@H](CO)[C@@H](O)C1(F)F [cedazuridine]	rapidly released	slowly released	degradation is minimal	increased Tmax, Cmax and AUC for azacitidine					
Nc1ncn([C@@H]2O[C@H](CO)[C@@H](O)[C@H]2O)c(=O)n1 [Group 1 (azacitidine, SQ), azacitidine]					761 ng·h/mL	384 ng/mL	0.6 h		
Nc1ncn([C@@H]2O[C@H](CO)C(O)[C@@H]2O)c(=O)n1 (some centres unmarked) [azacitidine]	rapidly released	slowly released						no elevation	1.5 h and 2.0 h and 1.0 h
